Consider two compounds from patent publication US9821173B2, “Anti-cancer agents and methods of use” (Case Western Reserve University, priority 2013, dated 2017).

Values joined by “and” are separate entries in the source; they are usually repeats but may differ in a detail not shown here. Equal entries are not always repeated. “Also recorded” adds a separate entry of the source.

As usually defined, the IC50 is the midpoint of a concentration-inhibition curve.

The subject of one data set is HCT-116. As to the kind of experiment: Cell proliferation assay (cell-titer blue). It is filed as cell-based. To be noted: cell viability, up to 48 hours, read-out: IC50 HCT116. The protocol: (§1) HeLa, MCF-7, HCT-116, and CEM-C7 were obtained from the American Type Culture Collection (Manassas, Va., USA). All adherent cell lines were maintained in Dulbecco's modified Eagle's medium (Mediatech) with 100 U/ml penicillin (Invitrogen), 100 μg/ml streptomycin (Invitrogen), 0.25 μg/ml amphotericin B (Invitrogen), and 10% fetal bovine serum (USA Scientific) and incubated at 37° C. with 5% CO2. CEM cells were maintained in RPMI-1640 media supplemented with 100 U/ml penicillin, 100 μg/ml streptomycin, 0.25 μg/ml amphotericin B, and 10% fetal bovine serum and incubated at 37° C. with […].
(§2) Cells were plated at a density of 7,000-13,000/well in 200 μl of media overnight in a 96-well plate. Each (phosphine)gold(I)-indole was added to wells in a dose-dependent manner (0.01-100 μM). Cells were treated with compounds for variable time periods (8-48 hours). With adherent cell lines, medium was removed from the wells and then 100 μl of fresh medium was added into each well followed by the addition of 20 μl of cell titer-blue reagent (Promega). Cells were incubated with reagent for 1-4 hrs and the optical density of samples was read at 560 nm using a microplate reader. The background absorbance of dye with media was subtracted from each sample. Cell viability was then normalized against cells treated with DMSO. IC50 values were obtained using a fit of the data to Equation 1: Y=100%/[1+(IC50/Inhibitor)] (1)
(§3) where y is the fraction of viable cells, IC50 is the concentration of inhibitor that inhibits 50% cell growth, and Inhibitor is the concentration of compound tested.
(§4) The cellular effects of these (phosphine)gold(I) indoles were tested against several cancer cell lines including HeLa (cervical cancer), MCF-7 (breast cancer), HCT-116 (colon cancer), and CEM-C7 (leukemia). The dose-dependency of each modified indole on cell viability was assessed using a cell-titer blue assay as previously described. In these experiments, cells were exposed to variable concentrations of each (phosphine)gold(I) indole (0.01-100 μM) for up to 48 hours and then assessed for viability.

In a further data set the test system is HeLa. As to the kind of experiment: Cell proliferation assay (cell-titer blue). It is filed as cell-based. To be noted: cell viability, cell-titer blue, up to 48 hours. The protocol: as §1, §2, §3, §4
Another data set concerns MCF-7. Description: Cell proliferation assay (cell-titer blue). It is filed as cell-based. To be noted: cell viability, up to 48 hours. The protocol:
as §1, §2, §3, §4

For data set [1], the system named is HeLa cells. As to the kind of experiment: Measurements of apoptosis, dual parameter FACS with PI and annexin V. It is filed as cell-based. To be noted: 50 μM. The protocol: Cells were plated at 200,000/ml, Au(I)-Indole analogs were added in a dose-dependent fashion for 12-24 hr. Cells were trypsinized and then washed with cold PBS. After discarding the supernatant, a 100 μL solution containing 1× annexin-binding buffer, 5 μl of alexa fluor 488 Annexin V and 1 μg/ml of PI solution was added to each sample. The cells were incubated at room temperature for 15 min. After this incubation period, an additional 400 μl of 1× annexin-binding buffer was added. Cells were analyzed using a band pass filters with wavelengths of 525/40 nm and 620/30 nm with a Beckman Coulter XL flow cytometer.

Another data set deals with BSA (Bos taurus, UniProt P02769). Description: Reactivity of Au(I)-compounds with BSA thiol (DTNB -SH titer). Further details: species or system bovine. To be noted: 120 μM compound, Au(I)/BSA ratios up to 4:1, one hour, 37° C., PBS. As for the experimental part: PBS was used as the reaction buffer.
BSA, sequence (P02769 25-607): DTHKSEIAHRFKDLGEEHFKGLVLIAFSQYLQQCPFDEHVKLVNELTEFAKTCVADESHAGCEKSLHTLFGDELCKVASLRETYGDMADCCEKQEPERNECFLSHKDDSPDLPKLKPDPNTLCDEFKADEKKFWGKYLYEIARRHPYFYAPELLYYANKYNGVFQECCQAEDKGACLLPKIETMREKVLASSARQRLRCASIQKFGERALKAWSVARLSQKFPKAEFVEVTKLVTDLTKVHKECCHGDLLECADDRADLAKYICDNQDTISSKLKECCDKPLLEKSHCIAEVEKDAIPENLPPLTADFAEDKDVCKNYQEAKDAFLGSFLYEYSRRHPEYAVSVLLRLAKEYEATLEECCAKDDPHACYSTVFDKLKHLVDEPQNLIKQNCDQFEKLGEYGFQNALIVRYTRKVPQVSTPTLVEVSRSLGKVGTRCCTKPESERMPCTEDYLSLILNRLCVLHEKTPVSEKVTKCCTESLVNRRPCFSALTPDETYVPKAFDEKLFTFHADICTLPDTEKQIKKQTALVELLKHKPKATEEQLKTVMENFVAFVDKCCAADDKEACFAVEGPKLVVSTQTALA
We tested the ability of various Au(I)-complexes to non-selectively react with BSA. […] P2 resin was effective in retaining Au(I)-containing compounds including compound 3 and compound 4. However, BSA was not retained in the resin as >95% of the BSA loaded into the Penefsky column is recovered in the eluant. […] Values obtained from reactions containing BSA incubated with the various Au(I) complexes were compared to identical reactions containing BSA alone and eluted through Penefsky columns.

Data set [2] relates to HeLa cells. To be noted: for fold more sensitive to IR exposure than cells treated with IR alone: HeLa pre-treated 24 hour with compound 3 (4 μM) or compound 4 (7 μM). As for the experimental part: HeLa cells were plated at a density of 250,000-300,000 cells/mL. After 24 hr cells, the cells were irradiated in a dose dependent manner (0-4 Gy) using a ^137Cs gamma source. After treatment, the cells were trypsinized and plated at a density between 300-4000 cells in 60 mm dishes. Cells were allowed to grow colonies (1 colony≧50 cells) for 10-14 days, stained with 0.25% crystal violet, and manually counted to measure the number of colonies. Survival fractions were normalized against positive controls (colony formation with no radiation) and plotted as the log percent survival versus dose of radiation. Each experiment was performed an average of four (4) times with cells propagated on several different days.
In this case, we measured the effects of combining these (phosphine)gold(I) indoles with ionizing radiation (IR), a widely used therapy used to treat solid tumors. […] After this time frame, media containing the (phosphine)gold(I) indole was removed and replaced with fresh media. The cells were then irradiated in a dose-dependent fashion from 0 to 6 Gy. Cell viability was assessed using a clonogenic assay that measures colony formation and thus accurately defines the cytotoxic effects of IR exposure. […] The initial linear phase is particularly important as this reflects repair of non-lethal damage inflicted by clinically-relevant doses of IR (˜2 Gy).

The nature of data set [3]: Reactivity toward L-cysteine (DTNB). To be noted: 400 μM L-cysteine with equivalent concentration of compound.
The target of a further data set is T1, GSK3α (Homo sapiens, UniProt P49840).
T1 construct: purchased Luceome Biotechnologies (Tucson, Ariz.)
T1 sequence (P49840 whole entry): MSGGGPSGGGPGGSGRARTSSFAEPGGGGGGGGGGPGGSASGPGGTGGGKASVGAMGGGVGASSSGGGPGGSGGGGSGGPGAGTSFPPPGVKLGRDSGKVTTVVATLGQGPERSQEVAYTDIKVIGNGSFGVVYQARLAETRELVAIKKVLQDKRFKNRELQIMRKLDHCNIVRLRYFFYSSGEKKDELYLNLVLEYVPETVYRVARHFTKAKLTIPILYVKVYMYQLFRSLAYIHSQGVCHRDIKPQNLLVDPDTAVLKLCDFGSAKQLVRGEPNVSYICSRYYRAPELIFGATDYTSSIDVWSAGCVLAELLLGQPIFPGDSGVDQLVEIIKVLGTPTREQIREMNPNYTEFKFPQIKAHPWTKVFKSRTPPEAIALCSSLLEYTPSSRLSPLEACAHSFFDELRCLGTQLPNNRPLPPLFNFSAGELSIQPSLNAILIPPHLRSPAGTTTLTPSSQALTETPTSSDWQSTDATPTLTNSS
Description: Kinase inhibition screening (Luceome). It is filed as biochemical. To be noted: 10 μM. From the text:
(§5) It is well established that dysfunctional and unregulated kinase activity plays significant roles in cancer initiation and progression. […] Inspection of the data provides several interesting observations. […] These inhibitory effects at this concentration are consistent with their measured IC50 values that are also in the μM range (Table 1). In addition, several kinases display overlapping inhibitory responses to both gold(I) compounds. Many of these are of particular interest since they are involved in cancer initiation and/or progression. For example, the Aurora kinase family members, Aurora A and Aurora B, as well as the MARK2 and MARK3 kinases function during mitosis to regulate cell division. These kinases are important therapeutic targets as their activities are often deregulated in many types of cancers. Other kinases such as RPS6KA3 and MLK3 are involved in the MAP kinase and JNK pathways which are also important in cancer progression.

The next data set addresses T2, MARK1 (Homo sapiens, UniProt Q9P0L2).
T2 construct: purchased Luceome Biotechnologies (Tucson, Ariz.)
As to the kind of experiment: Kinase inhibition screening (Luceome). To be noted: 10 μM. The format is biochemical.
From the text: as §5

The next data set has as its target T3, MARK2 (Homo sapiens, UniProt Q7KZI7).
T3 construct: purchased Luceome Biotechnologies (Tucson, Ariz.)
Description: Kinase inhibition screening (Luceome). The format is biochemical. To be noted: 10 μM.
From the text: as §5

A further data set has as its system FLT2. As to the kind of experiment: Kinase inhibition screening (Luceome). The format is biochemical, human. To be noted: 10 μM.
From the text: as §5

T2 sequence (Q9P0L2 whole entry): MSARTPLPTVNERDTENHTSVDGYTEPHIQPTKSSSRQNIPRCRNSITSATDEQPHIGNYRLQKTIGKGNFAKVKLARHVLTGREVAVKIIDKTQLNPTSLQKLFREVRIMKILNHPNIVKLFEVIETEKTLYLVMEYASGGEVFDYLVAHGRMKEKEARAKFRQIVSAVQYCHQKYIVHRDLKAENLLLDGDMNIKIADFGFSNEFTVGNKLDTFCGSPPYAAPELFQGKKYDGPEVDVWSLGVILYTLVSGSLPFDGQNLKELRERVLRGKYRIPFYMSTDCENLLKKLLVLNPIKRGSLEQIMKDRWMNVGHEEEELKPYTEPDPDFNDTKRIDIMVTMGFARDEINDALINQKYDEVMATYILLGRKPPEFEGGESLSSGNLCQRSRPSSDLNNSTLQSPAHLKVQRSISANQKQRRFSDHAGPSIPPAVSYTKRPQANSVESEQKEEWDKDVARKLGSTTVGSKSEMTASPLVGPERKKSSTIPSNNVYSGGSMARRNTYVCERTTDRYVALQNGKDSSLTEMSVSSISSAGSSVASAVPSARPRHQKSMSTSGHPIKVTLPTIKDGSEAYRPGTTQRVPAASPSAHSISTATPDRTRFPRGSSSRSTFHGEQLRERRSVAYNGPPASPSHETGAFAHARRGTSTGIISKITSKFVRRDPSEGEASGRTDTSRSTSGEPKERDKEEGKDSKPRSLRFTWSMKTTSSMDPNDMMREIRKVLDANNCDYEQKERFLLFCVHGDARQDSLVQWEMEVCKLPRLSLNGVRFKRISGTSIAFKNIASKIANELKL
T3 sequence (Q7KZI7 whole entry): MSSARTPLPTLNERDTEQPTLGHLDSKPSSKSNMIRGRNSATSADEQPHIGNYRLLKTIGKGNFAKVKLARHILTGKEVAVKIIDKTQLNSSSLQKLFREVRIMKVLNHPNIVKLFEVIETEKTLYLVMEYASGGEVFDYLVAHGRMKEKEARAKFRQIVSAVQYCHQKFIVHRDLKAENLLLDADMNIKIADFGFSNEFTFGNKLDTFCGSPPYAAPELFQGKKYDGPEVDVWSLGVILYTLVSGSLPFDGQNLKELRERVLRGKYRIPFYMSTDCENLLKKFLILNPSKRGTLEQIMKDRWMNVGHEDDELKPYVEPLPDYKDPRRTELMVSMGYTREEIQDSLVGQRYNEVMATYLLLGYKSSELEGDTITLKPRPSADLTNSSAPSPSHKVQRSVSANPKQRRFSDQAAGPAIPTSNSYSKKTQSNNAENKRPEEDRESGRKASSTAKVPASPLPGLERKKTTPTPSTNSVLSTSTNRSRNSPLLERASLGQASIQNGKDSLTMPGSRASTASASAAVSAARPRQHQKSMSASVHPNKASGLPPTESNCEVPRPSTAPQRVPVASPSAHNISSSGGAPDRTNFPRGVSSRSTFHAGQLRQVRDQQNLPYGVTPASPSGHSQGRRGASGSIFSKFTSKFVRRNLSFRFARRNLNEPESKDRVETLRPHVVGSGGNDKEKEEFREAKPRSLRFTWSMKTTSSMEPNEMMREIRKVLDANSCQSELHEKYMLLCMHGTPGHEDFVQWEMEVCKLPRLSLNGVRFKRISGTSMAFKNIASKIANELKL

With `CC(C)(C)OC(=O)n1ccc2c[c]([Au-][P+](c3ccccc3)(c3ccccc3)c3ccccc3)ccc21` [Compound 3, 5-{Triphenylphosphine aurate(I)}-tert-butyl1H-indole-1-carboxylate], in the data set on HCT-116, the IC50 stood at 11.5 µM. In the data set on HeLa, this compound came in with an IC50 of 2.5 µM. This compound also returned an IC50 in the data set with MCF-7 of 16.2 µM. Also, in the data set on HeLa cells [1] (24 hours), the “fold increase in early stage apoptosis compared to DMSO” value was determined as 6 fold and the “fold increase in late stage apoptosis compared to DMSO” value is given as approximately 10 fold. Further, in the data set with HeLa cells [1] (HeLa, 24 hours), the “Early Apoptotic (%)” value was 8.8% and 8.8 +/− 0.7%; the “Late Apoptotic (%)” value is 4.3% and 4.3 +/− 1.8%; the “Live (%)” value was 84.4 +/− 3.0%; the “Necrotic (%)” value is recorded as 2.4 +/− 0.8%. Further, the “reactivity with BSA (relative thiol content, -SH titer)” value at BSA was “relative thiol content of BSA remains unchanged”. Further, the “fold more sensitive to IR exposure than cells treated with IR alone” value in the data set with HeLa cells [2] was approximately 4 fold. The compound further had a dose-modifying factor in the data set on HeLa cells [2] (ionizing radiation, HeLa) of 4. The “change in free -SH on L-cysteine” value in [3] is on record as “does not change the titer of free —SH; also recorded: does not cause a change in the amount of free —SH”.
As to `CC(C)(C)OC(=O)n1ccc2c[c]([Au-][P+](C3CCCCC3)(C3CCCCC3)C3CCCCC3)ccc21` [Compound 4, 5-{Tricyclohexylphosphine aurate(I)}-tert-butyl1H-indole-1-carboxylate], in the data set with HCT-116, the IC50 turned out to be 22.8 µM. This compound showed a half-maximal inhibitory concentration (IC50) with HeLa of 16.2 µM. Besides, in the data set with MCF-7, the concentration for half-maximal inhibition (IC50) is 34.4 µM. Besides, in the data set on HeLa cells [1] (HeLa), the “fold higher amount of late-stage apoptotic cells compared to compound 3” value is 2 fold and the “fold higher amount of necrosis compared to compound 3” value is listed as approximately 9 fold. Also, in the data set with HeLa cells [1] (HeLa, 24 hours), the “Early Apoptotic (%)” value was 5.3% and 5.3 +/− 1.1%; the “Late Apoptotic (%)” value was 8.1% and 8.1 +/− 1.8%; the “Live (%)” value is given as 68.4 +/− 0.8%; the “Necrotic (%)” value is 18.8 +/− 2.5%. Besides, in the data set with HeLa cells [2], the “fold more sensitive to IR exposure than cells treated with IR alone” value is recorded as approximately 4 fold. For the same compound, the “% Inhibition GSK3α” value on GSK3α came to 5.8%. On MARK1, the “% Inhibition MARK1” value is given as 11.9%. Further, on MARK2, the “% Inhibition MARK2” value was 26.2%. Also, the “% Inhibition FLT2” value in the data set with FLT2 worked out at 0%.
